In ChEMBL document CHEMBL3862027, “Synthesis and antimalarial activity of N-benzylated (N-arylcarbamoyl)alkylphosphonic acid derivatives” (Bioorg Med Chem, 2016):

Assays:
Plasmodium falciparum [1] = test: Antimalarial activity against Plasmodium falciparum 3D7 infected in human erythrocytes assessed as cell viability at 20 uM after 48 hrs by lactate dehydrogenase assay; type: functional
[2] = Cytotoxicity against human HeLa cells assessed as cell viability at 20 uM after 24 hrs by resazurin based fluorescence assay relative to control; type: toxicity; settings: read-out: Activity
Plasmodium falciparum [3] = test: Antimalarial activity against Plasmodium falciparum 3D7 infected in human erythrocytes after 48 hrs by lactate dehydrogenase assay; type: functional, cell-based; settings: 3D7, 48 h
Plasmodium falciparum [4] = test: Inhibition of Plasmodium falciparum DXR at 20 uM using DOXP as substrate preincubated for 5 mins followed by substrate addition measured for 10 mins in presence of NADPH by spectrophotometric analysis

Row | Compound | Activity (Plasmodium falciparum [1]) | viability at 24 h, 20 µM [2] | IC50 (Plasmodium falciparum [3]) | inhibition (Plasmodium falciparum [4])
1 | CCOP(=O)(CCC(=O)N(Cc1ccccc1)c1cccc(OCc2ccccc2)c1)OCC | 6.84% | 108% | 16.4 µM | –
2 | CCOP(=O)(CCC(=O)N(Cc1ccccc1)c1cccc([N+](=O)[O-])c1)OCC | 59.6% | 118% | – | –
3 | CCOP(=O)(CC(=O)Nc1cccc([N+](=O)[O-])c1)OCC | 64.13% | 83.1% | – | –
4 | CCOP(=O)(CCC(=O)N(Cc1ccccc1)c1cccc(Br)c1)OCC | 35.19% | 121% | – | –
5 | CCOP(=O)(CCC(=O)N(Cc1ccccc1)c1ccccn1)OCC | -5.33% | 113% | 22.3 µM | –
6 | CCOP(=O)(CC(=O)Nc1ccccn1)OCC | -19.39% | 131% | 23.1 µM | –
7 | CCOP(=O)(CCC(=O)N(Cc1ccccc1)c1cccc(CO)c1)OCC | 55.44% | 110% | – | –
8 | O=C(CCP(=O)(O)O)N(Cc1ccccc1)c1ccccn1 | – | – | – | 0%
9 | CCOP(=O)(CCC(=O)Nc1cccc(O)c1)OCC | 54.54% | 119% | – | –
10 | CCOP(=O)(CC(=O)Nc1cccc(Br)c1)OCC | 50.91% | 102% | – | –
11 | CCOP(=O)(CCC(=O)Nc1cccc(OCc2ccccc2)c1)OCC | 51.13% | 105% | – | –
12 | CC(=O)N(O)CCCP(=O)(O)O | – | – | – | 73.3%
13 | O=C(CCP(=O)(O)O)N(Cc1ccccc1)c1cccc(O)c1 | – | – | – | 0%
14 | C#CCNC(=O)CCP(=O)(O)O | – | – | – | 6.7%
15 | CCOP(=O)(CC(=O)Nc1cccc(O[Si](C)(C)C(C)(C)C)c1)OCC | 61.87% | 85.7% | – | –
16 | CCOP(=O)(CC(=O)Nc1cccc(O)c1)OCC | 52.42% | 117% | – | –
17 | CCOP(=O)(CCC(=O)N(Cc1ccccc1)c1cccc(O)c1)OCC | -8.05% | 120% | 15.8 to 15.9 µM | –
18 | C#CCNC(=O)CCP(=O)(OCC)OCC | -4.04% | 92% | 20.1 µM | –
19 | CCOP(=O)(CC(=O)Nc1cccc(CO)c1)OCC | -7.26% | 123% | 10.1 µM | –
20 | C#CCNC(=O)CP(=O)(OCC)OCC | 47.96% | 104% | – | –
